In patent US7442715B2, “Thiazole derivatives” (Astellas Pharma Inc., priority 2003, dated 2008):
Counter-ions that a name gives are not always drawn.

Columns and labels:
[1] = target: T1, plasma SSAO (Rattus norvegicus, UniProt O08590); test: Plasma SSAO activity in STZ-induced diabetic rats after treatment; assay type: in vivo
T1 construct: from tissue; host or cells: plasma of STZ-induced diabetic rats
T1 sequence (O08590 29-763 limits assumed): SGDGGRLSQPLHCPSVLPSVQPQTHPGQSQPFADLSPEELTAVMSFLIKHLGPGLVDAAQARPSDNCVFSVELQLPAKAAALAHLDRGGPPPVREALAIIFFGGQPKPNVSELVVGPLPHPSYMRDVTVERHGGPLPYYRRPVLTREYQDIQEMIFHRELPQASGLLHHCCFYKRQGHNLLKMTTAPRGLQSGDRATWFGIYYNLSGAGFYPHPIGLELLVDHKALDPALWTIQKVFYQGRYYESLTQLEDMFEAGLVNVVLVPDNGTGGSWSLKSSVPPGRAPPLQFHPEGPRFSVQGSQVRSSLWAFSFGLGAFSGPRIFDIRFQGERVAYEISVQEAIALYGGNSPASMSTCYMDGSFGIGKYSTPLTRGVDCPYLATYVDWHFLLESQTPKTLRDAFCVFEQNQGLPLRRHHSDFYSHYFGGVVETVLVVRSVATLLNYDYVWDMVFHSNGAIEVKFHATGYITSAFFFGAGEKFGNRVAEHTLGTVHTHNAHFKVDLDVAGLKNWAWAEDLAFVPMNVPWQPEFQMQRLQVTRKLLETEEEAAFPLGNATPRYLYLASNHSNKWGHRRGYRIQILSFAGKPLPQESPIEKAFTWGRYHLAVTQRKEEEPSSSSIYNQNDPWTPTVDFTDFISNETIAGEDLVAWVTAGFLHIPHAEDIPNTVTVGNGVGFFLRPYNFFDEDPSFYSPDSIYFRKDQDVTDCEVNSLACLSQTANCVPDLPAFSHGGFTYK
Procedure: Diabetes in rat was induced with an intraperitoneal (i.p.) injection of 65 mg/ml/kg of streptozotocin (STZ) in 2 mmol/l citrate buffer (pH 4.5) after a 20-h fast. At the same time control rat were injected with an equal volume of 2 mmol/l citrate buffer. Plasma glucose level was checked by a calorimetric method. At day 3 of STZ treatment, the rat was diagnosed with diabetes showing a plasma glucose level of 350 mg/dl.
The treatment of Compound A was given daily from 2 weeks after STZ treatment for 2 weeks. At 24 hrs after final treatment of Compound A, the vascular permeability in oculus was investigated based on the leakage of dye into the vitreous 30 min after intravenous injection of fluorescein solution (40 mg/ml/kg). Permeability was expressed as vitreous/plasma ratio of fluorescein concentration measured by a fluorophotometer. At the same time, the plasma SSAO activity was checked by the radiochemical-enzyme assay using ^14C-benzylamine (2×10^−5 mol/l final concentration) as substrate.

[2] = target: T2, Human plasma SSAO (Homo sapiens, UniProt Q16853); test: VAP-1 enzyme (SSAO) activity in human plasma, radiochemical-enzyme assay with 14C-benzylamine; assay type: biochemical
T2 construct: The enzyme suspension prepared from blood plasma was pre-incubated with Compound A; from tissue; host or cells: human blood plasma
T2 sequence (Q16853 29-763 limits assumed): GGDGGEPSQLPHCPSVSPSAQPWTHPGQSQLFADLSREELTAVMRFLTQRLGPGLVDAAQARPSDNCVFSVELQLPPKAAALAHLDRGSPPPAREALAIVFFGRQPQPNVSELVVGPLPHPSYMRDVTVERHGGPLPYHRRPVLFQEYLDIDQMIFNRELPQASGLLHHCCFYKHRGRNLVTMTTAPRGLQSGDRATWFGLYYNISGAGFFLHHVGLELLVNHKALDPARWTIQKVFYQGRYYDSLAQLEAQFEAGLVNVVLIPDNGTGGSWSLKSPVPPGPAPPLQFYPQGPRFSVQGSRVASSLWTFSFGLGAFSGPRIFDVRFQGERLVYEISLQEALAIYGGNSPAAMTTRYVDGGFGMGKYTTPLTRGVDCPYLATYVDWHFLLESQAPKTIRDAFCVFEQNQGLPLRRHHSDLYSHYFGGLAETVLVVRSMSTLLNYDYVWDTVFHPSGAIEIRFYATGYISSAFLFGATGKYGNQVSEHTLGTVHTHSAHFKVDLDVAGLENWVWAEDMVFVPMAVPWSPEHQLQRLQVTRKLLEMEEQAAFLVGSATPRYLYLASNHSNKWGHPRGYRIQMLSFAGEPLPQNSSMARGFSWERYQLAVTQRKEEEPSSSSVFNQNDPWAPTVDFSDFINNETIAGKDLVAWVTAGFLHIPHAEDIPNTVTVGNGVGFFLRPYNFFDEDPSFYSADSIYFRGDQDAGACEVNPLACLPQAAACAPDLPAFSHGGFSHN
Procedure: (§1) VAP-1 enzyme (SSAO) activity in both human and rat plasma was determined by a radiochemical-enzyme assay using ^14C-benzylamine as artificial substrate. The enzyme suspension prepared from blood plasma was pre-incubated with Compound A in 96-well microplate at room temperature for 30 min. The enzyme suspension was then incubated with ^14C-benzylamine (2×10^−5 mol/l final concentration) in a final volume of 50 μl at 37° C. for 1 hour. The enzyme reaction was terminated by adding 2 mol/l (50 μl) citric acid. The oxidized products were directly extracted into a 200 μl toluene scintillator, and its radioactivity was measured by a scintillation spectrometer. Monoamine oxidase (MAO) and diamine oxidase (DAO, histaminase) activities were also determined by similar method using ^14C-phenylethylamine and ^14C-putrescine as substrate, respectively. Cloned DAO from cDNA libraries was used in human DAO assay. Inhibition activity was expressed as IC50 (μmol/l) value.

[3] = target: T3, Rat plasma SSAO (Rattus norvegicus, UniProt O08590); test: VAP-1 enzyme (SSAO) activity in rat plasma, radiochemical-enzyme assay with 14C-benzylamine; assay type: biochemical
T3 construct: The enzyme suspension prepared from blood plasma was pre-incubated with Compound A; from tissue; host or cells: rat blood plasma
T3 sequence (O08590 29-763 limits assumed): T1 sequence (O08590 29-763 limits assumed)
Procedure: as §1

| SMILES | melting point | other results |
| --- | --- | --- |
| CC(=O)Nc1nc(CCc2ccc(C(=O)NC(=N)N)cc2)c(Cc2ccc(S(C)(=O)=O)cc2)s1 [Production Example 106, 4-(2-{2-(acetylamino)-5-[4-(methylsulfonyl)benzyl]-1,3-thiazol-4-yl}ethyl)-N-[amino(imino)methyl]benzamide] | 108 to 109.5 °C |  |
| CC(=O)Nc1nc(CCc2ccc(C(=N)N)cc2)cs1.Cl | 229.5 to 231 °C |  |
| CC(=O)Nc1nc(CCc2ccc(NC(=N)N)cc2)c(C(=O)NCc2ccc([N+](=O)[O-])cc2)s1.Cl | 138 to 140 °C |  |
| CC(=O)Nc1nc(CCc2ccc(NC(=N)NN)cc2)cs1 [Production Example 58, N-{4-[2-(4-{[hydrazino(imino)methyl]amino}phenyl)ethyl]-1,3-thiazol-2-yl}acetamide] | 216.5 to 218 °C |  |
| CC(=O)Nc1nc(CCc2ccc(NC(=N)N)cc2)c(Cc2ccc(S(C)(=O)=O)cc2)s1 [Production Example 48, N-{4-[2-(4-{[amino(imino)methyl]amino}phenyl)ethyl]-5-[4-(methylsulfonyl)benzyl]-1,3-thiazol-2-yl}acetamide] | 228 to 229.5 °C |  |
| CC(=O)Nc1nc(CCc2ccc(NC3=NCCS3)cc2)cs1 [Production Example 2, N-(4-(2-(4-(4,5-dihydro-1,3-thiazol-2-ylamino)phenyl)ethyl)-1,3-thiazol-2-yl)acetamide] | 218 to 219.5 °C |  |
| CC(=N)Nc1ccc(CCc2nc(NC(C)=O)sc2Cc2ccc(S(C)(=O)=O)cc2)cc1 [Production Example 56, N-{4-{2-[4-(ethanimidoylamino)phenyl]ethyl}-5-[4-(methylsulfonyl)benzyl]-1,3-thiazol-2-yl}acetamide] | 81.5 to 83 °C |  |
| CC(=O)Nc1nc(CCc2ccc(CON)cc2)cs1 [Production Example 16, N-[4-(2-{4-[(aminooxy)methyl]phenyl}ethyl)-1,3-thiazol-2-yl]acetamide] | 130 to 130.5 °C |  |
| CC(=O)Nc1nc(CCc2ccc(NC(=N)N)cc2)cs1 [Compound A, N-{4-[2-(4-{[amino(imino)methyl]amino}phenyl)ethyl]-1,3-thiazol-2-yl}acetamide] |  | Plasma SSAO activity ([1]; STZ diabetic rats, daily treatment for 2 weeks from 2 weeks after STZ, 14C-benzylamine 2×10^−5 mol/l, mean±S.E.M., 10 rats): 2.51 ± 0.26 pmol/min/mL; Effect on increased plasma SSAO activity in diabetic rats (in words) ([1]; diabetic rats at 4 weeks after STZ treatment): dose-dependent inhibition of the increased plasma SSAO activity; Inhibition of enzyme activity of human plasma SSAO (in words) [2]: completely inhibited; Inhibition of enzyme activity of rat plasma SSAO (in words) [3]: completely inhibited |
| CC(=O)Nc1nc(CCc2ccc(CC(=N)N)cc2)cs1 (as salt: hydrochloride) [Production Example 59, N-(4-{2-[4-(2-amino-2-iminoethyl)phenyl]ethyl}-1,3-thiazol-2-yl)acetamide] | 190.5 to 192 °C |  |
